Laboratory results from patent US8980848B2, “Flavonoid dimers and their use” (The Hong Kong Polytechnic University, priority 2010, dated 2015).

Key:
[1] = Tumor cell line cytotoxicity of flavonoid dimers, LCC6MDR; assay type: cell-based, human; conditions: human, IC50 of compound alone
Method: (§1) (b) Tumor Cell Line Cytotoxicity. The tumor cytotoxicity assays of flavonoid dimers were performed against LCC6, LCC6MDR and L929 cell lines. […] In brief, LCC6, LCC6MDR and L929 cells were seeded into 96-well flat bottom microtiter plate at 1×10^4 cells per well in a final volume of 100 μL media, respectively. A graded dose of flavonoid dimers was added into wells. The plate was incubated at 37° C. for 72 hrs at the atmosphere 5% CO2 in the air. The % of survivors was determined.

[2] = Tumor cell line cytotoxicity of flavonoid dimers, LCC6; assay type: cell-based, human; conditions: human, IC50 of compound alone
Method: as §1

Pgp (LCC6MDR cells) = Pgp (LCC6MDR cells) (Homo sapiens, UniProt P08183); test: Cell proliferation assay: Pgp-modulating activity, reversal of anticancer drug resistance in LCC6MDR cells; conditions: for RF (Relative Fold), cpd at 0.5 μM: RF = (IC50 without modulator)/(IC50 with 0.5 μM modulator); for RF (Relative Fold), cpd at 0.5 μM / RF (Relative Fold), cpd at 1 μM: paclitaxel; for RF (Relative Fold), cpd at 0.5 μM / RF (Relative Fold), cpd at 1 μM / EC50: LCC6MDR; for RF (Relative Fold), cpd at 1 μM: RF = (IC50 without modulator)/(IC50 with 1.0 μM modulator); for EC50: EC50 of compounds for reversing anticancer drug resistance (nM); for Therapeutic index: IC50 of compounds for L929/EC50 of compounds for lowering paclitaxel drug resistance
Method: Cell Proliferation Assay. 6,000 cells of LCC6 or LCC6MDR and anticancer drugs (paclitaxel, vinblastine, vincristine, doxorubicin and mitoxantrone) were mixed with or without modulators to a final volume of 200 μL in each well of 96-well plates. […] The plates were then incubated for 5 days at 37° C. […] IC50 values were calculated from the dose-response curves of MTS assays (Prism 4.0).

[3] = Cytotoxicity of flavonoid dimers, L929 mouse fibroblast; assay type: cell-based; conditions: mouse, IC50 of compound alone, 72 hrs, mouse fibroblast
Method: as §1

Chain of Pgp (LCC6MDR cells) (P08183 whole entry): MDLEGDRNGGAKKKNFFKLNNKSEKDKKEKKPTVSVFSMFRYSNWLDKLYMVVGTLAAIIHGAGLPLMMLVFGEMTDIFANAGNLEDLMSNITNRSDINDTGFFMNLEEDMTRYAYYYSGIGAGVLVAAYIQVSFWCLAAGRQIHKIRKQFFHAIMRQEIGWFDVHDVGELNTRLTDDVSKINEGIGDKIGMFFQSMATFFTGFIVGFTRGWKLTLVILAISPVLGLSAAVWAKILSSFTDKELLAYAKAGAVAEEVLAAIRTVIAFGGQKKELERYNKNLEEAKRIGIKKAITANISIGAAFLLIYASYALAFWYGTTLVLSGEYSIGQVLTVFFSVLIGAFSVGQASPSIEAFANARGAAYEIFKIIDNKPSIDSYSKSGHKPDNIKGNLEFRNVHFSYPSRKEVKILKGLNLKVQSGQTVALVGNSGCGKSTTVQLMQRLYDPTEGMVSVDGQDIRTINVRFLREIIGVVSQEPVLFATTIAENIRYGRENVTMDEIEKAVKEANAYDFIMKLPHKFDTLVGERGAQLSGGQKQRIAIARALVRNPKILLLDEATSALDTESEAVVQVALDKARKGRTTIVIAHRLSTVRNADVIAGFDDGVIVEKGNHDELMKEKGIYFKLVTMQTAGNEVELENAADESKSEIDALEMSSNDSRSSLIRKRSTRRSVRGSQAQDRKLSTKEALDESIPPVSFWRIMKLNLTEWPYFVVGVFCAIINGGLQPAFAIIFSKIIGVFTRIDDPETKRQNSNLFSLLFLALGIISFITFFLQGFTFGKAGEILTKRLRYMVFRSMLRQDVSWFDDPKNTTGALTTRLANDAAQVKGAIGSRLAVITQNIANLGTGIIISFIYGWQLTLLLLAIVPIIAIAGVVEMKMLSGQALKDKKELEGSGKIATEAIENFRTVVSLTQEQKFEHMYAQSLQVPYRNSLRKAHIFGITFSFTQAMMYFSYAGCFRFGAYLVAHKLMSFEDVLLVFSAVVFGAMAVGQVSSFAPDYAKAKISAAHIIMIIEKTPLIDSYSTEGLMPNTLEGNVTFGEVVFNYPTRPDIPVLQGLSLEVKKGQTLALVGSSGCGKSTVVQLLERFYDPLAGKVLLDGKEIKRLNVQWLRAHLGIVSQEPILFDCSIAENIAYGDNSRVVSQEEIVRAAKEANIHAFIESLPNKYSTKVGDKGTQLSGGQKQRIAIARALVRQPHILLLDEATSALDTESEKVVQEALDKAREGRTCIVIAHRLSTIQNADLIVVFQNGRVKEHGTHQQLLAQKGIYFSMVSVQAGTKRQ

SMILES | IC50 at 72 h ([1]; LCC6MDR cells) | IC50 at 72 h ([2]; LCC6 cells) | RF (Relative Fold), cpd at 0.5 μM (Pgp (LCC6MDR cells)) | IC50 at 72 h ([3]; L929 fibroblast cells) | RF (Relative Fold), cpd at 1 μM (Pgp (LCC6MDR cells)) | EC50 (Pgp (LCC6MDR cells); Paclitaxel) | Therapeutic index (Pgp (LCC6MDR cells)) | other results
COc1cc(-c2cc(=O)c3ccccc3o2)ccc1OCCOCCNCCOCCOc1ccc(-c2cc(=O)c3ccccc3o2)cc1OC [Compound 12b, 1,13-Bis[4′-((4H-chromen-4-on-2-yl)-3′-methoxyphenyl)]-1,4,10,13-tetraoxa-7-azamidecane] | 23.8 ± 12.8 µM | 12.8 ± 1.1 µM | (0.8) | – | – | – | – | –
Cc1ccc2oc(-c3ccc(OCCOCCNCCOCCOc4ccc(-c5cc(=O)c6cc(C)ccc6o5)cc4)cc3)cc(=O)c2c1 [Compound 12c, 1,13-Bis[4′-((6-methyl)-4H-chromen-4-on-2-yl)phenyl]-1,4,10,13-tetraoxa-7-azamidecane] | 7 ± 1.4 µM | 7.5 ± 0.9 µM | (13.9) | 6 ± 0.6 µM | – | – | – | –
COc1cccc2oc(-c3ccc(OCCOCCNCCOCCOc4ccc(-c5cc(=O)c6c(OC)cccc6o5)cc4)cc3)cc(=O)c12 [Compound 12d, 1,13-Bis[4′-((5-methoxy)-4H-chromen-4-on-2-yl)phenyl]-1,4,10,13-tetraoxa-7-azamidecane] | 10.2 ± 3.8 µM | 8.8 ± 2.7 µM | (1.2) | – | – | – | – | –
O=c1c(OCc2ccccc2)c(-c2ccc(OCCOCCNCCOCCOc3ccc(-c4oc5ccccc5c(=O)c4OCc4ccccc4)cc3)cc2)oc2ccccc12 [Compound 12e, 1,13-Bis[4′-((3-benzyloxy)-4H-chromen-4-on-2-yl)phenyl]-1,4,10,13-tetraoxa-7-azamidecane] | 4.4 ± 0.1 µM | 4.3 ± 0.5 µM | (54.7) | 4.2 µM | – | – | – | –
O=c1cc(-c2ccc(OCCOCCNCCOCCOc3ccc(-c4cc(=O)c5cc(F)ccc5o4)cc3)cc2)oc2ccc(F)cc12 [Compound 12f, 1,13-Bis[4′-((6-fluoro)-4H-chromen-4-on-2-yl)phenyl]-1,4,10,13-tetraoxa-7-azamidecane] | 3.3 ± 0.5 µM | 5.3 ± 1 µM | (72.9) | 5.7 ± 0.4 µM | (109.4) | – | – | –
COc1cc(-c2cc(=O)c3ccccc3o2)ccc1OCCOCCN(CCOCCOc1ccc(-c2cc(=O)c3ccccc3o2)cc1OC)C(=O)OC(C)(C)C [Compound 16b, 1,13-Bis[4′-((4H-chromen-4-on-2-yl)-3′-methoxyphenyl)]-7-(tert-butylformyl)-1,4,10,13-tetraoxa-7-azamidecane] | 6.9 ± 2.9 µM | 8.3 ± 1.4 µM | (8.7) | 33.3 µM | – | – | – | –
C[C@H](N)C(=O)N(CCOCCOc1ccc(-c2cc(=O)c3ccccc3o2)cc1)CCOCCOc1ccc(-c2cc(=O)c3ccccc3o2)cc1 [Compound 23b, 1,13-Bis[4′-(4H-chromen-4-on-2-yl)phenyl]-7-[(S)-2-amino-1-oxopropyl]-1,4,10,13-tetraoxa-7-azamidecane] | 4.6 ± 0.2 µM | 4.4 µM | (1.0) | – | – | – | – | –
O=C(c1ccccc1)N(CCOCCOc1ccc(-c2cc(=O)c3ccccc3o2)cc1)CCOCCOc1ccc(-c2cc(=O)c3ccccc3o2)cc1 [Compound 23d, 1,13-Bis[4′-(4H-chromen-4-on-2-yl)phenyl]-7-(benzoyl)-1,4,10,13-tetraoxa-7-azamidecane] | > 100 µM | > 100 µM | (7.5) | 95 µM | – | – | – | –
CC(C)(C)CC(=O)N(CCOCCOc1ccc(-c2cc(=O)c3ccccc3o2)cc1)CCOCCOc1ccc(-c2cc(=O)c3ccccc3o2)cc1 [Compound 33, 1,13-Bis[4′-(4H-chromen-4-on-2-yl)phenyl]-7-(tert-butylacetyl)-1,4,10,13-tetraoxa-7-azamidecane] | > 100 µM | > 100 µM | (18.9) | > 100 µM | – | – | – | –
O=c1cc(-c2ccc(OCCOCCN(CCOCCOc3ccc(-c4cc(=O)c5ccccc5o4)cc3)Cc3ccc(C(F)(F)F)cc3)cc2)oc2ccccc12 [Compound 35, 1,13-Bis[4′-(4H-chromen-4-on-2-yl)phenyl]-7-(4-trifluoromethylbenzyl)-1,4,10,13-tetraoxa-7-azamidecane] | > 100 µM | > 100 µM | (37.3) | 32.7 µM | – | 150 nM | 218.0 | –
O=c1cc(-c2ccc(OCCOCCN(CCOCCOc3ccc(-c4cc(=O)c5ccccc5o4)cc3)Cc3ccc(F)cc3F)cc2)oc2ccccc12 [Compound 40, 1,13-Bis[4′-(4H-chromen-4-on-2-yl)phenyl]-7-(2,4-difluorobenzyl)-1,4,10,13-tetraoxa-7-azamidecane] | > 100 µM | > 100 µM | (32.6) | > 100 µM | (117.8) | 246 ± 66 nM | >406.5 | –
O=c1cc(-c2ccc(OCCOCCN(CCOCCOc3ccc(-c4cc(=O)c5ccccc5o4)cc3)Cc3c(F)cccc3F)cc2)oc2ccccc12 [Compound 41, 1,13-Bis[4′-(4H-chromen-4-on-2-yl)phenyl]-7-(2,6-difluorobenzyl)-1,4,10,13-tetraoxa-7-azamidecane] | > 100 µM | > 100 µM | (34.0) | > 100 µM | (90.1) | 237 ± 91 nM | >421.9 | –
COc1ccc(CN(CCOCCOc2ccc(-c3cc(=O)c4ccccc4o3)cc2)CCOCCOc2ccc(-c3cc(=O)c4ccccc4o3)cc2)cc1 [Compound 42a, 1,13-Bis[4′-(4H-chromen-4-on-2-yl)phenyl]-7-(4-methoxybenzyl)-1,4,10,13-tetraoxa-7-azamidecane] | > 100 µM | > 91 µM | (61.2) | > 100 µM | (117.8) | 104 ± 7 nM | >961.5 | EC50 (Pgp (LCC6MDR cells); Daunorubicin): 61 ± 6 nM; EC50 (Pgp (LCC6MDR cells); Doxorubicin): 63 ± 8 nM; EC50 (Pgp (LCC6MDR cells); Mitoxantrone): 96 ± 27 nM; EC50 (Pgp (LCC6MDR cells); Vinblasinte, vinblastine): 94 ± 13 nM; EC50 (Pgp (LCC6MDR cells); Vincristine): 98 ± 5 nM
O=c1cc(-c2ccc(OCCOCCN(CCOCCOc3ccc(-c4cc(=O)c5ccccc5o4)cc3)Cc3ccc(OC(F)(F)F)cc3)cc2)oc2ccccc12 [Compound 42b, 1,13-Bis[4′-(4H-chromen-4-on-2-yl)phenyl]-7-(4-trifluoromethoxybenzyl)-1,4,10,13-tetraoxa-7-azamidecane] | > 100 µM | > 100 µM | (3.8) | > 83 µM | (47.8) | – | – | –
CC(=O)Oc1ccc(CN(CCOCCOc2ccc(-c3cc(=O)c4ccccc4o3)cc2)CCOCCOc2ccc(-c3cc(=O)c4ccccc4o3)cc2)cc1 [Compound 42c, 1,13-Bis[4′-(4H-chromen-4-on-2-yl)phenyl]-7-(4-acetyloxybenzyl)-1,4,10,13-tetraoxa-7-azamidecane] | 5.9 ± 0.7 µM | 6.6 ± 1 µM | (95.7) | 4.5 ± 0.1 µM | (117.8) | 140 ± 12 nM | 32.1 | –
O=c1cc(-c2ccc(OCCOCCN(CCOCCOc3ccc(-c4cc(=O)c5ccccc5o4)cc3)Cc3ccc(O)cc3)cc2)oc2ccccc12 [Compound 42d, 1,13-Bis[4′-(4H-chromen-4-on-2-yl)phenyl]-7-(4-hydroxybenzyl)-1,4,10,13-tetraoxa-7-azamidecane] | 5.3 ± 0.7 µM | 5.4 ± 0.6 µM | (117.8) | 4.8 ± 0.3 µM | (117.8) | 141 ± 9 nM | 34.0 | –
O=c1cc(-c2ccc(OCCOCCN(CCOCCOc3ccc(-c4cc(=O)c5ccccc5o4)cc3)Cc3cc4c(cc3Cl)OCO4)cc2)oc2ccccc12 [Compound 42f, 1,13-Bis[4′-(4H-chromen-4-on-2-yl)phenyl]-7-[5-(6-chloropiperonyl)]-1,4,10,13-tetraoxa-7-azamidecane] | > 100 µM | > 100 µM | (4.8) | > 100 µM | (80.6) | – | – | –
COc1cccc(CN(CCOCCOc2ccc(-c3cc(=O)c4ccccc4o3)cc2)CCOCCOc2ccc(-c3cc(=O)c4ccccc4o3)cc2)c1 [Compound 43, 1,13-Bis[4′-(4H-chromen-4-on-2-yl)phenyl]-7-(3-methoxybenzyl)-1,4,10,13-tetraoxa-7-azamidecane] | > 100 µM | > 100 µM | (22.5) | > 100 µM | (95.7) | – | – | –
C/C=C/C[C@@H](C)C(=O)[C@H]1C(=O)N[C@@H](C(C)C)C(=O)N(C)CC(=O)N(C)[C@@H](CC(C)C)C(=O)N[C@@H](C(C)C)C(=O)N(C)[C@@H](CC(C)C)C(=O)N[C@@H](C)C(=O)N[C@H](C)C(=O)N(C)[C@@H](CC(C)C)C(=O)N(C)[C@@H](CC(C)C)C(=O)N(C)[C@@H](C(C)C)C(=O)N1C [PSC833, reference compound] | – | – | – | – | – | – | – | IC50 at 72 h [1]: 14.6 ± 2.2 µM; IC50 at 72 h [2]: 25.3 ± 4.3 µM; IC50 at 72 h [3]: > 100 µM
